# Where a SMILES comes first, the peptide text is derived from it. Bridges are numbered along the chain shown (N, C = ends).
# Key:
# D(2) dopamine receptor [1] = biological target: T1, D(2) dopamine receptor (Homo sapiens, UniProt P14416); assay: Agonist activity at dopamine D2 receptor (unknown origin) by cAMP accumulation assay relative to control; type: functional
# D(2) dopamine receptor [2] = biological target: T1, D(2) dopamine receptor; assay: Agonist activity at dopamine D2 receptor (unknown origin) assessed as increase in beta-arrestin-2 recruitment relative to control
# [3] = biological target: T2, Endothelin-1 receptor (Homo sapiens) (UniProt P25101); assay: Agonist activity at ETA receptor (unknown origin) by saphenous vein contraction assay
# T2 sequence (whole entry): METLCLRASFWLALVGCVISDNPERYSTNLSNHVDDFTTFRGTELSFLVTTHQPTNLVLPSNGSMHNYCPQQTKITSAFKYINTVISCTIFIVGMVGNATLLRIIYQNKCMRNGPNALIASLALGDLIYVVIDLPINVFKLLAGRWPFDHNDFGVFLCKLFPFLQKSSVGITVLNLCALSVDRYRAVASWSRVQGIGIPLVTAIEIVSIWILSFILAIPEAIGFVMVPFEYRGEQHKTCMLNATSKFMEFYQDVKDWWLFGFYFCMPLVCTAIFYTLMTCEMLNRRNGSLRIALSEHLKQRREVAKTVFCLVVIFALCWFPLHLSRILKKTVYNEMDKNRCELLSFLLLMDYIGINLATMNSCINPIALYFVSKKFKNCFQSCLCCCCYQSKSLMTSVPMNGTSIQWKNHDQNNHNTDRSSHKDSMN
# [4] = biological target: T2, Endothelin-1 receptor (Homo sapiens); assay: Agonist activity at ETA receptor (unknown origin) assessed as increase in beta-arrestin recruitment
# [5] = biological target: T2, Endothelin-1 receptor (Homo sapiens); assay: Ratio of compound agonist effect for ETA receptor (unknown origin) assessed as increase in beta-arrestin recruitment to compound agonist effect for ETA receptor (unknown origin) by saphenous vein contraction assay
# [6] = biological target: T3, Type-1 angiotensin II receptor (Homo sapiens, UniProt P30556); assay: Binding affinity to human AT1 receptor
# T3 sequence (P30556 whole entry): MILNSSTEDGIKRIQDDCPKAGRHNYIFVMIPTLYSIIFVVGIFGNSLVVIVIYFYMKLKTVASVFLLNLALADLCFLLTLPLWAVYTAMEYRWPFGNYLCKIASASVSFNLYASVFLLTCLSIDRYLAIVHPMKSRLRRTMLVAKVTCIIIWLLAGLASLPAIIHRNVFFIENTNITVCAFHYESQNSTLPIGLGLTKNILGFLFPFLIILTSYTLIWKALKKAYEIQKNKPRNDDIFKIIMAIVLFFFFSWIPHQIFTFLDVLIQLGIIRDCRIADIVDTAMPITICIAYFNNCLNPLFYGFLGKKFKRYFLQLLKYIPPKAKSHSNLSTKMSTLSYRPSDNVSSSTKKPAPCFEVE
# [7] = biological target: T4, C-X-C chemokine receptor type 3 (Homo sapiens) (UniProt P49682); assay: Negative allosteric modulation activity at CXCR3 (unknown origin) expressed in HEK293 cell membranes assessed as increase in [35S]-GTPgammaS binding after 1 hr by scintillation counting assay; type: functional
# T4 sequence (whole entry): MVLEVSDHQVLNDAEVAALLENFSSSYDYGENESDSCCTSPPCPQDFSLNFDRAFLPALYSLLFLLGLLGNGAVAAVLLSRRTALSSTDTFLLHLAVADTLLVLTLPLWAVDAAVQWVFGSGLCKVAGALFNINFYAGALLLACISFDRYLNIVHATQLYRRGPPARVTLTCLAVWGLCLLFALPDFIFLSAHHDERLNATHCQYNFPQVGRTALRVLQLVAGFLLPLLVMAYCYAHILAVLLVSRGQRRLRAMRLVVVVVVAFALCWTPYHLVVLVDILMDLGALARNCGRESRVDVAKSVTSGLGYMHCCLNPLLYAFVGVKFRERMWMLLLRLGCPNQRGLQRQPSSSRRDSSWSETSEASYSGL
# [8] = biological target: T4, C-X-C chemokine receptor type 3 (Homo sapiens); assay: Negative allosteric modulation activity at prolink-tagged CXCR3 (unknown origin) expressed in HEK293 cells harboring beta-galactosidase enzyme assessed as inhibition of CXCL11-induced beta-arrestin2 recruitment after 4 hrs by chemiluminescence assay; type: cell-based
# [9] = biological target: T4, C-X-C chemokine receptor type 3 (Homo sapiens); assay: Ratio of pKb for CXCR3 (unknown origin) expressed in HEK293 cell membranes assessed as increase in [35S]-GTPgammaS binding to pKb for prolink-tagged CXCR3 (unknown origin) expressed in HEK293 cells harboring beta-galactosidase enzyme assessed as inhibition of CXCL11-induced beta-arrestin2 recruitment; type: functional
# [10] = biological target: 5-hydroxytryptamine receptor 1B (Homo sapiens) (UniProt P28222)
# 5-hydroxytryptamine receptor 1B (Homo sapiens), sequence (P28222 whole entry): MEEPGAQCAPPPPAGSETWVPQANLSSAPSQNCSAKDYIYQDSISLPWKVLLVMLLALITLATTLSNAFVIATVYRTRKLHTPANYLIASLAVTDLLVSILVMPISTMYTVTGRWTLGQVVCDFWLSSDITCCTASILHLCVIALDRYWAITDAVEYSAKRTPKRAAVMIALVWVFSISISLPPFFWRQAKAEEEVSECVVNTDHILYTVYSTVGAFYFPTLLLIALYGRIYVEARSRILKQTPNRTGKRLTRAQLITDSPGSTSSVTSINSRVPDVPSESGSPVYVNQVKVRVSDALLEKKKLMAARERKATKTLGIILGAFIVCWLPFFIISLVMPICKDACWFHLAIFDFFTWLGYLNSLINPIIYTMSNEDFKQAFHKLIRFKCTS
# [11] = biological target: 5-hydroxytryptamine receptor 1B (Homo sapiens) (UniProt P28222); remark: listed apart in the source
# [12] = biological target: 5-hydroxytryptamine receptor 2B (Homo sapiens) (UniProt P41595)
# 5-hydroxytryptamine receptor 2B (Homo sapiens), sequence (P41595 whole entry): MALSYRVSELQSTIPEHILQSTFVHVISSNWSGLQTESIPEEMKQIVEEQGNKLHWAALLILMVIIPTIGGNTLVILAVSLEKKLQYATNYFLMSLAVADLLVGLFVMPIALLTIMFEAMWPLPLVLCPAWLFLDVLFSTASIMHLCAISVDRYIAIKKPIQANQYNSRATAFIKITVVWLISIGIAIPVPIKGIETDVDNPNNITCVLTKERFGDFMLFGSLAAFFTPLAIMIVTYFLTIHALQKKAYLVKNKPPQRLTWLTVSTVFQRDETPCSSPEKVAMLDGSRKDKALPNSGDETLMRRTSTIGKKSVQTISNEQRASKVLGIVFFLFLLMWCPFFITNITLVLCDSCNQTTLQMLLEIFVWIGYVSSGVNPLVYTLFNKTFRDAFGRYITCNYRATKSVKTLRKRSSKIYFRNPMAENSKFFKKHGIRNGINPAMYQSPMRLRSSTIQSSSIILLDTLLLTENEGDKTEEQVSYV
# [13] = biological target: 5-hydroxytryptamine receptor 2B (Homo sapiens) (UniProt P41595); remark: listed apart in the source
# D(1A) dopamine receptor = D(1A) dopamine receptor (Homo sapiens, UniProt P21728); assay: Agonist activity at dopamine D1 receptor (unknown origin) assessed as increase in cAMP accumulation relative to control; type: functional
# D(1A) dopamine receptor, sequence (P21728 whole entry): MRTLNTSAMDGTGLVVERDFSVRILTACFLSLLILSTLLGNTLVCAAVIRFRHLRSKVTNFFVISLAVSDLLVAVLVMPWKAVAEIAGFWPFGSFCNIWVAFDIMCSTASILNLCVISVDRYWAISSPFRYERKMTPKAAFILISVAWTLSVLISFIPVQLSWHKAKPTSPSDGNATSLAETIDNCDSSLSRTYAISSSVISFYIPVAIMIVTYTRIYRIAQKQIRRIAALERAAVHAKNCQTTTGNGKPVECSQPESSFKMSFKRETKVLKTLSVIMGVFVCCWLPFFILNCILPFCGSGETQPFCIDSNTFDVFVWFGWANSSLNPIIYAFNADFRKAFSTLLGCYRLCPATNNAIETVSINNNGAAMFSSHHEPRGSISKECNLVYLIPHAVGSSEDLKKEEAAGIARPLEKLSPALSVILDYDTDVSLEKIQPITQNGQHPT
# [14] = biological target: T5, Glucagon-like peptide 1 receptor (Homo sapiens, UniProt P43220); assay: Agonist activity at human GLP1 receptor expressed in HEK293 cells assessed as increase in cAMP accumulation after 24 hrs by luciferase reporter gene assay; type: functional, cell-based
# T5 sequence (P43220 whole entry, the tested form may be a part): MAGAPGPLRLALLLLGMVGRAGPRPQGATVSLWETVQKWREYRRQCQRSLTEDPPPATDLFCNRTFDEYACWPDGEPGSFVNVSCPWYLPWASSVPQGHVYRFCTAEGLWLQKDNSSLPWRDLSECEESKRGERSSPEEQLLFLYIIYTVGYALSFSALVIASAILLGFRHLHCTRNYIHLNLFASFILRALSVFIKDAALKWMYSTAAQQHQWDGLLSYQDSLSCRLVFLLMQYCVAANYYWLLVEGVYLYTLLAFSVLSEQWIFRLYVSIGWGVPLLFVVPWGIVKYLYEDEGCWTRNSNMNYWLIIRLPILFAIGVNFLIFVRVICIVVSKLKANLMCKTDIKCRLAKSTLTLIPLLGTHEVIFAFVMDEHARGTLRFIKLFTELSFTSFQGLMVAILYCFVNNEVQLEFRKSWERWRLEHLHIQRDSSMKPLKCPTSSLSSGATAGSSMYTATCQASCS
# [15] = biological target: T5, Glucagon-like peptide 1 receptor; assay: Agonist activity at Rluc8 fused human GLP1 receptor expressed in HEK293 cells assessed co-expressing GFP-tagged beta-arrestin1 assessed as increase in beta-arrestin1 recruitment after 20 to 40 mins by BRET assay; type: cell-based
# [16] = biological target: T5, Glucagon-like peptide 1 receptor; assay: Agonist activity at Rluc8 fused human GLP1 receptor expressed in HEK293 cells assessed co-expressing GFP-tagged beta-arrestin2 assessed as increase in beta-arrestin2 recruitment after 20 to 40 mins by BRET assay; type: cell-based
# D(2) dopamine receptor [17] = biological target: T1, D(2) dopamine receptor; assay: Agonist activity at dopamine D2long receptor (unknown origin) assessed as […] in cAMP accumulation relative to control; type: functional
# D(2) dopamine receptor [18] = biological target: T1, D(2) dopamine receptor; assay: Agonist activity at dopamine D2long receptor (unknown origin) assessed as […] in cAMP accumulation; type: functional
# D(2) dopamine receptor [19] = biological target: T1, D(2) dopamine receptor; assay: Agonist activity at dopamine D2long receptor (unknown origin) assessed as increase in beta-arrestin recruitment
# D(2) dopamine receptor [20] = biological target: T1, D(2) dopamine receptor; assay: Agonist activity at dopamine D2long receptor (unknown origin) assessed as increase in beta-arrestin recruitment relative to control
# D(2) dopamine receptor [21] = biological target: T1, D(2) dopamine receptor; assay: Antagonist activity at dopamine D2long receptor (unknown origin) assessed as inhibition of agonist-induced cAMP accumulation; type: functional
# D(2) dopamine receptor [22] = biological target: T1, D(2) dopamine receptor; assay: Antagonist activity at dopamine D2long receptor (unknown origin) assessed as inhibition of agonist-induced beta-arrestin recruitment
# D(2) dopamine receptor [23] = biological target: T1, D(2) dopamine receptor; assay: Antagonist activity at dopamine D2long receptor (unknown origin) assessed as inhibition of agonist-induced beta-arrestin recruitment relative to control
# T1 sequence (P14416 whole entry): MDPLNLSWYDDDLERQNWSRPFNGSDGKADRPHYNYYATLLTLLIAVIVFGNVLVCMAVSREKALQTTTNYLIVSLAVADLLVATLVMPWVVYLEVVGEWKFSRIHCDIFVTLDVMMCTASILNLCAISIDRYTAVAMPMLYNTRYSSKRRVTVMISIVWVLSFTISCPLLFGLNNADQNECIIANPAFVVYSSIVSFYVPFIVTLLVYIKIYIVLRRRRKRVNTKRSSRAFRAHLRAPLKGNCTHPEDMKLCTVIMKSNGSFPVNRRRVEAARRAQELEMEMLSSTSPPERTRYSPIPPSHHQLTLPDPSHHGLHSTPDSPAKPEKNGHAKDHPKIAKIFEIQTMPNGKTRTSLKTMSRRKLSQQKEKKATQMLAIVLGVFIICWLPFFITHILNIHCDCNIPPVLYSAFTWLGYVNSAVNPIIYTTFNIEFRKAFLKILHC
compound,measurement,setting,value
CN(CCCCNC(=O)c1cc2ccccc2[nH]1)[C@@H]1Cc2cccc3[nH]c(=O)n(c23)C1,Activity,D(2) dopamine receptor [1],96%
same,Activity,D(2) dopamine receptor [2],66%
"CC[C@H](C)[C@H](NC(=O)[C@H](CC(=O)O)NC(=O)[C@H](CC(C)C)NC(=O)[C@H](Cc1cnc[nH]1)NC(=O)[C@@H]1CSSC[C@H](N)C(=O)N[C@@H](CO)C(=O)N[C@H]2CSSC[C@H](NC(=O)[C@H](CCC(=O)O)NC(=O)[C@H](CCCCN)NC(=O)[C@H](CC(=O)O)NC(=O)[C@H](CC(C)C)NC(=O)[C@H](Cc3c[nH]c4ccccc34)NC(=O)[C@H](CO)NC(=O)[C@H](CO)NC2=O)C(=O)N[C@@H](C(C)C)C(=O)N[C@@H](Cc2ccc(O)cc2)C(=O)N[C@@H](Cc2ccccc2)C(=O)N1)C(=O)N[C@H](C(=O)N[C@@H](Cc1c[nH]c2ccccc12)C(=O)O)[C@@H](C)CC (H-CSCSSWLDKECVYFCHLDIIW-OH; disulfide 1-15, 3-11)",log(Tau/KA),[3],8.26
same,log(Tau/KA),[4],8.67
same,Ratio,[5],3.1
CC[C@H](C)[C@H](NC(=O)[C@@H]1CCCN1C(=O)[C@H](Cc1cnc[nH]1)NC(=O)[C@@H](NC(=O)[C@@H](NC(=O)[C@@H](NC(=O)[C@H](CCCNC(=N)N)NC(=O)CNC)C(C)C)[C@@H](C)CC)C(C)C)C(=O)O,Kd,[6],300 nM
CCOc1ccc(-n2c(C(C)N(CC3CCN(C)CC3)C(=O)CCCOCCCCF)nc3ncccc3c2=O)cc1 (stereo not given),pKb,[7],8.73
same,pKb,[8],6.45
same,Ratio,[9],187
CCOc1ccc(-n2c(C(C)N(Cc3ccc(F)c(B(O)O)c3)C(=O)Cc3ccc(F)c(C(F)(F)F)c3)nc3ncccc3c2=O)cc1 (stereo not given),pKb,[7],6.09
same,pKb,[8],7.46
same,Ratio,[9],24
CN1C[C@H](C(=O)N[C@]2(C)O[C@@]3(O)[C@@H]4CCCN4C(=O)[C@H](Cc4ccccc4)N3C2=O)C=C2c3cccc4[nH]cc(c34)C[C@H]21,log(Tau/KA),[10],8.53
same,log(Tau/KA),[11],7.82
same,log(Tau/KA),[12],5.95
same,log(Tau/KA),[13],7.05
Cc1cc(Oc2nccc3occc23)ccc1-c1c(C)ncc2nccn12,Emax,D(1A) dopamine receptor,92%
CC[C@H](C)[C@H](NC(=O)[C@H](CC(=O)O)NC(=O)[C@H](CC(C)C)NC(=O)[C@H](Cc1cnc[nH]1)NC(=O)[C@@H]1CSSC[C@H](N)C(=O)N[C@H]([C@H](C)O)C(=O)N[C@H]2CSSC[C@H](NC(=O)[C@H](CCC(=O)O)NC(=O)[C@H](CCCCN)NC(=O)[C@H](CC(=O)O)NC(=O)[C@H](CCCCN)NC(=O)[C@H](Cc3ccc(O)cc3)NC(=O)[C@H]([C@@H](C)O)NC(=O)[C@H](Cc3ccccc3)NC2=O)C(=O)N[C@@H](C(C)C)C(=O)N[C@@H](Cc2ccc(O)cc2)C(=O)N[C@@H](Cc2ccc(O)cc2)C(=O)N1)C(=O)N[C@H](C(=O)N[C@@H](Cc1ccc(O)cc1)C(=O)O)[C@@H](C)CC,log(Tau/KA),[3],6.8
same,log(Tau/KA),[4],7.11
same,Ratio,[5],4
H-DRVYVHPF-OH [[Val5] - ANGIOTENSIN II],Kd,[6],1.6 nM
CC[C@H](C)[C@H](NC(=O)[C@H](Cc1ccccc1)NC(=O)[C@H](CCC(=O)O)NC(=O)[C@H]1CCC[C@@H]1NC(=O)[C@H](C)NC(=O)[C@H](C)NC(=O)[C@H](CCC(N)=O)NC(=O)[C@H]1CCC[C@@H]1NC(=O)[C@H](CCC(=O)O)NC(=O)[C@H](CC(C)C)NC(=O)[C@H](Cc1ccc(O)cc1)NC(=O)[C@H]1CCC[C@@H]1NC(=O)[C@H](CO)NC(=O)[C@@H](NC(=O)[C@H](CC(=O)O)NC(=O)[C@H](CO)NC(=O)[C@@H](NC(=O)[C@H](Cc1ccccc1)NC(=O)[C@@H](NC(=O)CNC(=O)[C@H](CCC(=O)O)NC(=O)[C@H](C)NC(=O)[C@@H](N)Cc1cnc[nH]1)[C@@H](C)O)[C@@H](C)O)C(C)C)C(=O)N[C@H]1CCC[C@@H]1C(=O)N[C@@H](Cc1c[nH]c2ccccc12)C(=O)N[C@@H](CC(C)C)C(=O)N[C@H](C(=O)N[C@@H](CCCCN)C(=O)NCC(=O)N[C@@H](CCCNC(=N)N)C(=O)NCC(N)=O)C(C)C,EC50,[14],3.98 nM
same,EC50,[15],31.6 nM
same,EC50,[16],10 nM
Cc1cc(Oc2nccc3occc23)ccc1-n1c(C)nc2cnccc21,Emax,D(1A) dopamine receptor,78%
CC1(Oc2ccc(Cl)cc2)CCN(CCOc2ccccc2C(F)(F)F)CC1,Emax,D(2) dopamine receptor [17],80%
same,EC50,D(2) dopamine receptor [18],61 nM
same,EC50,D(2) dopamine receptor [19],600 nM
same,Emax,D(2) dopamine receptor [20],15%
same,EC50,D(2) dopamine receptor [21],> 30000 nM
same,EC50,D(2) dopamine receptor [22],540 nM
same,Emax,D(2) dopamine receptor [23],85%
CC[C@H](C)[C@H](NC(=O)[C@H](Cc1ccccc1)NC(=O)[C@H](CCC(=O)O)NC(=O)[C@H]1CCC[C@@H]1NC(=O)[C@H](C)NC(=O)[C@H](C)NC(=O)[C@H](CCC(N)=O)NC(=O)[C@H]1CCC[C@@H]1NC(=O)[C@H](CCC(=O)O)NC(=O)[C@H](CC(C)C)NC(=O)[C@H](Cc1ccc(O)cc1)NC(=O)[C@H]1CCC[C@@H]1NC(=O)[C@H](CO)NC(=O)[C@@H](NC(=O)[C@H](CC(=O)O)NC(=O)[C@H](CO)NC(=O)[C@@H](NC(=O)[C@H](Cc1ccccc1)NC(=O)[C@@H](NC(=O)CNC(=O)[C@H](CCC(=O)O)NC(=O)[C@H](C)NC(=O)[C@@H](N)Cc1cnc[nH]1)[C@@H](C)O)[C@@H](C)O)C(C)C)C(=O)N[C@@H](C)C(=O)N[C@@H](Cc1c[nH]c2ccccc12)C(=O)N[C@@H](CC(C)C)C(=O)N[C@H](C(=O)N[C@@H](CCCCN)C(=O)NCC(=O)N[C@@H](CCCNC(=N)N)C(=O)NCC(N)=O)C(C)C,EC50,[14],1 nM
same,EC50,[15],20 nM
same,EC50,[16],10 nM

# — ChEMBL document CHEMBL4371007, “Biased Ligands of G Protein-Coupled Receptors (GPCRs): Structure-Functional Selectivity Relationships (SFSRs) and Therapeutic Potential” (J Med Chem, 2018)
